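Five concentrations, 48 hours, 96-well plates. Abbreviation: GI50, concentration required for 50% inhibition of growth. TGI: concentration producing complete growth inhibition.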
Assays:
Assay in all cases: NCI tumour cell line growth inhibition, 48 h
SK-MEL-28 melanoma = tested on: SK-MEL-28 melanoma
HL-60(TB) leukemia = tested on: HL-60(TB) leukemia
HCC-2998 colon = tested on: HCC-2998 colon
SK-OV-3 ovarian = tested on: SK-OV-3 ovarian
CAKI-1 renal = tested on: CAKI-1 renal
DU-145 prostate = tested on: DU-145 prostate
HOP-92 NSCLC = tested on: HOP-92 NSCLC
NCI/ADR-RES ovarian = tested on: NCI/ADR-RES ovarian
ACHN renal = tested on: ACHN renal
CCRF-CEM leukemia = tested on: CCRF-CEM leukemia
MALME-3M melanoma = tested on: MALME-3M melanoma
OVCAR-3 ovarian = tested on: OVCAR-3 ovarian
RPMI-8226 leukemia = tested on: RPMI-8226 leukemia
SK-MEL-5 melanoma = tested on: SK-MEL-5 melanoma
HCT-116 colon = tested on: HCT-116 colon
SF-539 CNS = tested on: SF-539 CNS
NCI-H226 lung = tested on: NCI-H226 lung
LOX IMVI melanoma = tested on: LOX IMVI melanoma
COLO 205 colon = tested on: COLO 205 colon
HOP-62 NSCLC = tested on: HOP-62 NSCLC
SF-268 CNS = tested on: SF-268 CNS
PC-3 prostate = tested on: PC-3 prostate
NCI-H23 lung = tested on: NCI-H23 lung
SNB-19 CNS = tested on: SNB-19 CNS
HCT-15 colon = tested on: HCT-15 colon
TK-10 renal = tested on: TK-10 renal
MCF7 breast = tested on: MCF7 breast
NCI-H460 lung = tested on: NCI-H460 lung
OVCAR-5 ovarian = tested on: OVCAR-5 ovarian

NC(Cc1c[nH]c2ccc(F)cc12)C(=O)O (stereo unspecified) was tested, and the GI50 (SK-MEL-28 melanoma) was 795 µM, the TGI (SK-MEL-28 melanoma) was greater than 2500 µM and the GI50 (HL-60(TB) leukemia) was 737 µM. For the same molecule, the TGI (HL-60(TB) leukemia) was greater than 2500 µM, the GI50 (HCC-2998 colon) was 1810 µM and the TGI (HCC-2998 colon) was greater than 2500 µM. For the same molecule, the GI50 (SK-OV-3 ovarian) was 451 µM, the TGI (SK-OV-3 ovarian) was 1370 µM and the GI50 (CAKI-1 renal) was 1270 µM. For the same molecule, the TGI (CAKI-1 renal) was greater than 2500 µM, the GI50 (DU-145 prostate) was 1310 µM and the TGI (DU-145 prostate) was greater than 2500 µM. For the same molecule, the TGI (HOP-92 NSCLC) was greater than 2500 µM, the GI50 (NCI/ADR-RES ovarian) was 675 µM and the TGI (NCI/ADR-RES ovarian) was greater than 2500 µM. For the same molecule, the GI50 (ACHN renal) was 738 µM, the TGI (ACHN renal) was greater than 2500 µM and the GI50 (CCRF-CEM leukemia) was 1090 µM. For the same molecule, the TGI (CCRF-CEM leukemia) was greater than 2500 µM, the GI50 (MALME-3M melanoma) was 490 µM and the TGI (MALME-3M melanoma) was 1130 µM. The GI50 (OVCAR-3 ovarian) was 724 µM, the TGI (OVCAR-3 ovarian) was greater than 2500 µM and the GI50 (RPMI-8226 leukemia) was 1240 µM. It also gave a TGI (RPMI-8226 leukemia) greater than 2500 µM, a GI50 (SK-MEL-5 melanoma) of 375 µM and a TGI (SK-MEL-5 melanoma) of 711 µM. It also gave a GI50 (HCT-116 colon) of 853 µM, a TGI (HCT-116 colon) greater than 2500 µM and a GI50 (SF-539 CNS) of 506 µM. For the same molecule, the TGI (SF-539 CNS) was 1590 µM, the GI50 (NCI-H226 lung) was 626 µM and the TGI (NCI-H226 lung) was greater than 2500 µM. For the same molecule, the GI50 (LOX IMVI melanoma) was 509 µM, the TGI (LOX IMVI melanoma) was 1860 µM and the GI50 (COLO 205 colon) was 340 µM. For the same molecule, the TGI (COLO 205 colon) was 1010 µM, the GI50 (HOP-62 NSCLC) was 480 µM and the TGI (HOP-62 NSCLC) was 2160 µM. It also gave a GI50 (SF-268 CNS) of 677 µM, a TGI (SF-268 CNS) greater than 2500 µM and a GI50 (PC-3 prostate) of 780 µM. The TGI (PC-3 prostate) was greater than 2500 µM, the GI50 (NCI-H23 lung) was 1540 µM and the TGI (NCI-H23 lung) was greater than 2500 µM. The GI50 (SNB-19 CNS) was 1680 µM, the TGI (SNB-19 CNS) was greater than 2500 µM and the GI50 (HCT-15 colon) was 1180 µM. For the same molecule, the TGI (HCT-15 colon) was greater than 2500 µM, the GI50 (TK-10 renal) was greater than 2500 µM and the TGI (TK-10 renal) was greater than 2500 µM. For the same molecule, the GI50 (MCF7 breast) was 911 µM, the TGI (MCF7 breast) was greater than 2500 µM and the GI50 (NCI-H460 lung) was 730 µM. It also gave a TGI (NCI-H460 lung) greater than 2500 µM and a GI50 (OVCAR-5 ovarian) of 814 µM.

Source: PubChem BioAssay (NCI)
